{"source": "patent EP1079826B1", "about": "“USE OF INDIGOID BISINDOLE DERIVATIVES FOR THE MANUFACTURE OF A MEDICAMENT TO INHIBIT CYCLIN DEPENDENT KINASES” (CNRS, Centre National de la Recherche Scientifique, priority 1998, dated 1999)", "key": {"[1]": {"system": "CDK1", "conditions": "Table 1, known inhibitors; roscovitine value for racemic mixture; cited from earlier work"}, "[2]": {"system": "PKC", "conditions": "Table 1, known inhibitors; cited from earlier work"}, "[3]": {"system": "MAPK", "conditions": "Table 1, known inhibitors; cited from earlier work"}, "[4]": {"target": "epidermal growth factor receptor tyrosine kinase (Homo sapiens, UniProt P00533)", "sequence (P00533 25-1210)": "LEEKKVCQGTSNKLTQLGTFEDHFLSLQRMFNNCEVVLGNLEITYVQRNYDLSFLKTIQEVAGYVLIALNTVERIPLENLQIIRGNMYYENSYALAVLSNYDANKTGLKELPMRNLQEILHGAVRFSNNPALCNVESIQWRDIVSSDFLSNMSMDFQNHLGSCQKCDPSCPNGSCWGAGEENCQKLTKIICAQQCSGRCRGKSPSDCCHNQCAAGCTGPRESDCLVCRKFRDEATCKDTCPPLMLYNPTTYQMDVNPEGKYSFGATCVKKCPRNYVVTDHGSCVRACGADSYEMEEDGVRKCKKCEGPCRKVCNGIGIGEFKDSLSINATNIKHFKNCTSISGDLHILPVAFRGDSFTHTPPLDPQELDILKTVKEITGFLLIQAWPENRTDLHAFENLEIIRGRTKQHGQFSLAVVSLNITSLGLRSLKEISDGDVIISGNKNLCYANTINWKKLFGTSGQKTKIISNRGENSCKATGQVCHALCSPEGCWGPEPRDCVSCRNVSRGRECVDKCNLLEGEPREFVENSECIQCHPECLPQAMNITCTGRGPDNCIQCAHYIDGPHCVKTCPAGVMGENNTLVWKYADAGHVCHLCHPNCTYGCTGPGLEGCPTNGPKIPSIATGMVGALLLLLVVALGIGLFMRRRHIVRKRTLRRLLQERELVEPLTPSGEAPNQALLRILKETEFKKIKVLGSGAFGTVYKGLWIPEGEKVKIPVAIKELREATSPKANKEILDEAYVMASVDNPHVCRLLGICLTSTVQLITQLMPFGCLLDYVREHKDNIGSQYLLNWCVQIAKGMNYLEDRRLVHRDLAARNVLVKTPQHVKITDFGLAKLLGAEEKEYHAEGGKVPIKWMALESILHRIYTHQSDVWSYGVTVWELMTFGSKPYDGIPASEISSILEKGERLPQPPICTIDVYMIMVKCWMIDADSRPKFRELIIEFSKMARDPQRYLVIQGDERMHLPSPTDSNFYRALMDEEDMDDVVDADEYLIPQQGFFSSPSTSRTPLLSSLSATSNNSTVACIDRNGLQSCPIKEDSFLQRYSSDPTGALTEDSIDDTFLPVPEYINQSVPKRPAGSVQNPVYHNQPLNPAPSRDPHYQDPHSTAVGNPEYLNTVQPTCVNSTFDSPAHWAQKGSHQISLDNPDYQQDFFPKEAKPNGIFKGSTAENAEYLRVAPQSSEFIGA", "conditions": "Table 1, known inhibitors; read-out: IC50 Tyrosine-kinase (EGF-R); cited from earlier work"}, "[5]": {"target": "p34^cdc2/cyclinB", "test": "p34cdc2/cyclin B kinase assay (histone H1 phosphorylation, [γ-32P] ATP)", "format": "biochemical, starfish (Marthasterias glacialis)", "procedure": "J. Biochem., 243, (1997), 527-536). […] After 10 min. incubation at 30°C, 25 μl aliquots of supernatant were spotted onto 2.5 x 3 cm pieces of Whatman P81 phosphocellulose paper, and after 20 sec., the filters were washed five times (for at least 5 min. each time) in a solution of 10 ml phosphoric acid/liter of water. The wet filters were transferred into 6 ml plastic scintillation vials, 5 ml ACS (Amersham) scintillation fluid was added and the radioactivity measured in a Packard scintillation counter."}, "[6]": {"system": "PKC", "test": "PKC inhibition (specificity panel)", "format": "biochemical", "conditions": "Ca2+-dependent protein kinase, Table 3"}, "[7]": {"conditions": "compared with indirubine; cited from earlier work"}, "[8]": {"system": "cdc25", "test": "cdc25 inhibition (specificity panel)", "format": "biochemical", "conditions": "Table 3"}, "[9]": {"target": "CDK4/ cyclin D1 (Homo sapiens, UniProt P11802)", "sequence (P11802 whole entry, species assumed)": "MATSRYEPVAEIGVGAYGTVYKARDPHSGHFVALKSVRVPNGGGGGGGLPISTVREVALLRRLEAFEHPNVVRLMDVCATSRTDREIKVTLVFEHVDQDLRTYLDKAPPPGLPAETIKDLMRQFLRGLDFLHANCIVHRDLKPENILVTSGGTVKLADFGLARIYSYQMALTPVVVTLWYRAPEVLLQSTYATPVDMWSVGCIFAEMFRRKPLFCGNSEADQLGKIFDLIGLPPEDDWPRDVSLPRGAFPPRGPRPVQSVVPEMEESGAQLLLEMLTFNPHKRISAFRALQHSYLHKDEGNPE", "sequence (P24385 whole entry partner, species assumed)": "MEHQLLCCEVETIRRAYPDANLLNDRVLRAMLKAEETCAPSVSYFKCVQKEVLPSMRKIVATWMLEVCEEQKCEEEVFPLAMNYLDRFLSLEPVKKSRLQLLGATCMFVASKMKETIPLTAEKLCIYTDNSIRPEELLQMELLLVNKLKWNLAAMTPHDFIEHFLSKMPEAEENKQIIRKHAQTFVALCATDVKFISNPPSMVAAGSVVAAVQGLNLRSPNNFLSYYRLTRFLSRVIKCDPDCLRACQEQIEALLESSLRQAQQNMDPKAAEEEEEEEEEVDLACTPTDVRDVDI", "test": "kinase inhibition selectivity, CDK4/cyclin D1", "format": "biochemical"}, "[10]": {"target": "CDK2/ cyclin E (Homo sapiens, UniProt P24941)", "test": "biochemical"}, "[11]": {"target": "CDK2/ cyclin A (Homo sapiens, UniProt P24941)", "test": "biochemical"}, "[12]": {"target": "CDK5/ p35 (Homo sapiens, UniProt Q00535)", "sequence (Q00535 whole entry, species assumed)": "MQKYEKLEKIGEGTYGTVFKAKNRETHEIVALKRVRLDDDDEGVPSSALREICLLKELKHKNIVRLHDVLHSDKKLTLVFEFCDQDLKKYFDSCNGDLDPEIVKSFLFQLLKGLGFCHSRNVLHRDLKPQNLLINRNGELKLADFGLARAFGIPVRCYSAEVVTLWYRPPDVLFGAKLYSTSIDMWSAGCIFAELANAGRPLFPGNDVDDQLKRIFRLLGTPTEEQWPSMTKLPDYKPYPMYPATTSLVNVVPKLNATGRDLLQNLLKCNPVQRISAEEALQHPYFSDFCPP", "sequence (Q15078 whole entry partner, species assumed)": "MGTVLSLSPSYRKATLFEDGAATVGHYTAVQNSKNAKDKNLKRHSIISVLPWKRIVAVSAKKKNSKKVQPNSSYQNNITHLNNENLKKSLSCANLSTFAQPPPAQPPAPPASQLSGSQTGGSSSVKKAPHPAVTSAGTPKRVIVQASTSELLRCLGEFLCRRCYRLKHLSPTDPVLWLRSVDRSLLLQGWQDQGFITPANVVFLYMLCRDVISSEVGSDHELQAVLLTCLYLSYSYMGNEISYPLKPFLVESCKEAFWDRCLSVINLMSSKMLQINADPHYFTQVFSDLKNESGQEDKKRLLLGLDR", "test": "kinase inhibition selectivity, CDK5/p35", "format": "biochemical"}, "[13]": {"system": "MCF-7 mammary carcinoma cells", "test": "induction of apoptotic cell death in cell culture", "format": "cell-based, human", "procedure": "(§1) An inhibition of p34^cdc2-kinase by indigoid bisindole derivatives is not described in the prior art. […] In concentrations ≥ 5 µM, an additional arrest at G2/M-phase of the cell cycle became apparent."}, "[14]": {"system": "MCF-7 mammary carcinoma cells", "test": "cell cycle arrest in cell culture", "format": "cell-based, human", "procedure": "as §1"}, "[15]": {"system": "CDK1/cyclin B", "test": "histone H1 phosphorylation as a measure for CDK1/cyclin B activity in cell culture", "format": "cell-based, human", "conditions": "after 24 h incubation of MCF-7 mammary carcinoma cells", "text": "An inhibition of p34^cdc2-kinase by indigoid bisindole derivatives is not described in the prior art."}, "[16]": {"system": "MCF-7 mammary carcinoma cells", "test": "growth inhibition in cell culture", "format": "cell-based", "conditions": "Homo sapiens, MCF7, 72 h; after 3 days incubation; 50% growth inhibition as compared to vehicle control", "procedure": "as §1"}, "[17]": {"system": "PKG", "conditions": "Table 1, known inhibitors; cited from earlier work"}, "[18]": {"system": "chronic myelogenous leukemia", "conditions": "cases of chronic myelogenous leukemia; cited from earlier work"}, "[19]": {"conditions": "cdc2 kinase, Table 3, read-out: IC50 cdc2"}, "[20]": {"conditions": "calculated from dose response curves, Table 4, read-out: IC50 CDK1/ cyclin B"}, "[21]": {"conditions": "cells arrested by serum deprivation, treatment for 24 h in serum containing medium"}, "[22]": {"conditions": "calculated from dose response curves, Table 4, read-out: IC50 CDK5/ p35"}}, "note": "Like-named read-outs stand apart in the source and are kept apart here.", "data": [{"smiles": "Cc1c2ccncc2c(C)c2c1[nH]c1ccc(O)cc12", "note": "[9-Hydroxy-ellipticine, 9-Hydroxyellipticin]", "values": [{"measurement": "IC50", "setting": "[1]", "result": "~1", "unit": "µM"}]}, {"smiles": "COC(=O)C1(Cc2ccc(O)c(CC=C(C)C)c2)OC(=O)C(O)=C1c1ccc(O)cc1", "note": "(stereo not drawn) [Butyro-lactone-I, Butyrolactone-I]", "values": [{"measurement": "IC50", "setting": "[2]", "result": 160, "unit": "µM"}, {"measurement": "IC50", "setting": "[1]", "result": "[…]"}, {"measurement": "IC50", "setting": "[3]", "result": 94, "unit": "µM"}, {"measurement": "IC50", "setting": "[4]", "result": "> 590", "unit": "µM"}]}, {"smiles": "O=C1Nc2ccc(I)cc2/C1=C1/Nc2ccccc2C1=O", "note": "[Example 2, 5-Iodoindirubine]", "values": [{"measurement": "IC50", "setting": "[5]; [19]", "result": 0.3, "unit": "µM"}, {"measurement": "IC50 PKC", "setting": "[6]", "result": "no Effect"}, {"measurement": "antitumor activity", "setting": "[7]", "result": "superior to that of indirubine"}, {"measurement": "IC50", "setting": "[8]", "result": 130, "unit": "µM"}]}, {"smiles": "O=C1Nc2ccc(Br)cc2/C1=C1/Nc2ccccc2C1=O", "note": "[Example 3, 5-Bromoindirubine]", "values": [{"measurement": "IC50", "setting": "[5]; [19]", "result": 0.35, "unit": "µM"}, {"measurement": "IC50", "setting": "[8]", "result": 32, "unit": "µM"}]}, {"smiles": "O=C1Nc2ccc(Cl)cc2/C1=C1/Nc2ccccc2C1=O", "note": "[Example 4, 5-Chloroindirubine]", "values": [{"measurement": "IC50", "setting": "[9]", "result": 6.5, "unit": "µM"}, {"measurement": "IC50", "setting": "[5]; [20]", "result": 0.4, "unit": "µM"}, {"measurement": "IC50", "setting": "[5]; [19]", "result": 0.4, "unit": "µM"}, {"measurement": "IC50", "setting": "[10]", "result": 0.55, "unit": "µM"}, {"measurement": "IC50", "setting": "[11]", "result": 0.75, "unit": "µM"}, {"measurement": "IC50", "setting": "[12]", "result": 0.8, "unit": "µM"}, {"measurement": "IC50", "setting": "[8]", "result": 55, "unit": "µM"}]}, {"smiles": "O=C1Nc2ccc(F)cc2/C1=C1/Nc2ccccc2C1=O", "note": "[Example 5, 5-Fluoroindirubine]", "values": [{"measurement": "IC50", "setting": "[5]; [19]", "result": 2, "unit": "µM"}, {"measurement": "IC50", "setting": "[8]", "result": 70, "unit": "µM"}]}, {"smiles": "Cc1ccc2c(c1)C(=C1Nc3ccccc3C1=O)C(=O)N2", "note": "[Example 6, 5-Methylindirubine]", "values": [{"measurement": "IC50", "setting": "[5]; [19]", "result": 0.8, "unit": "µM"}, {"measurement": "IC50", "setting": "[8]", "result": 60, "unit": "µM"}]}, {"smiles": "O=C1Nc2ccc([N+](=O)[O-])cc2/C1=C1/Nc2ccccc2C1=O", "note": "[Example 7, 5-Nitroindirubine]", "values": [{"measurement": "IC50", "setting": "[5]; [19]", "result": 2.2, "unit": "µM"}, {"measurement": "IC50", "setting": "[8]", "result": 60, "unit": "µM"}]}, {"smiles": "O=C1Nc2ccccc2/C1=C1/Nc2ccc(Br)cc2C1=O", "note": "[Example 8, 5'-Bromoindirubine]", "values": [{"measurement": "IC50", "setting": "[5]; [19]", "result": 6.5, "unit": "µM"}]}, {"smiles": "O=C1Nc2ccc(Br)cc2/C1=C1/Nc2ccc(Br)cc2C1=O", "note": "[Example 9, 5,5'-Dibromoindirubine]", "values": [{"measurement": "IC50", "setting": "[5]; [19]", "result": 7, "unit": "µM"}]}, {"smiles": "O=C1Nc2ccccc2C1=C1Nc2ccccc2C1=NO", "note": "[Example 10, Indirubine-3'-oxime]", "values": [{"measurement": "apoptotic cell death", "setting": "[13]", "result": "induction of apoptotic cell death was observed"}, {"measurement": "arrest in G1-phase of the cell cycle", "setting": "[14]; [21]", "result": "low micromolar concentrations"}, {"measurement": "concentration at which additional arrest at G2/M-phase of the cell cycle became apparent", "setting": "[14]; [21]", "result": "≥ 5", "unit": "µM"}, {"measurement": "concentration giving significant increase of G2/M arrested cells", "setting": "[14]; cells arrested in G2/M by Nocodazole treatment, after release of the block", "result": "≥ 5", "unit": "µM"}, {"measurement": "IC50", "setting": "[10]", "result": 0.25, "unit": "µM"}, {"measurement": "content of cyclin B complex", "setting": "[15]", "result": "significantly reduced"}, {"measurement": "histone H1 phosphorylation as a measure for CDK1/cyclin B activity", "setting": "[15]", "result": "inhibit histone H1 phosphorylation"}, {"measurement": "IC50", "setting": "[11]", "result": 0.44, "unit": "µM"}, {"measurement": "IC50", "setting": "[16]", "result": "3.3 ± 0.7", "unit": "µM"}]}, {"smiles": "O=C1Nc2ccc(S(=O)(=O)O)cc2C1=C1Nc2ccccc2C1=O", "note": "[Example 11, Indirubine-5-sulfonic acid]", "values": [{"measurement": "IC50", "setting": "[5]; [20]", "result": 0.055, "unit": "µM"}, {"measurement": "IC50", "setting": "[5]; [19]", "result": 0.055, "unit": "µM"}, {"measurement": "IC50", "setting": "[12]; [22]", "result": 0.065, "unit": "µM"}, {"measurement": "IC50", "setting": "[8]", "result": 110, "unit": "µM"}]}, {"smiles": "O=C1Nc2ccccc2/C1=C1\\C(=O)Nc2ccccc21", "note": "[Example 12, Isoindigo]", "values": [{"measurement": "IC50", "setting": "[5]; read-out: IC50-value for the p34^cdc2/cyclinB complex", "result": 80, "unit": "µM"}]}, {"smiles": "CN1CC[C@H](c2c(O)cc(O)c3c(=O)cc(-c4ccccc4Cl)oc23)[C@H](O)C1", "note": "[Flavopiridol]", "values": [{"measurement": "IC50", "setting": "[17]", "result": 6, "unit": "µM"}]}, {"smiles": "CN[C@@H]1C[C@H]2O[C@@](C)([C@@H]1OC)n1c3ccccc3c3c4c(c5c6ccccc6n2c5c31)C(=O)NC4", "note": "[Staurosporine]", "values": [{"measurement": "IC50", "setting": "[17]", "result": 0.009, "unit": "µM"}]}, {"smiles": "CN[C@@H]1C[C@H]2O[C@@](C)([C@@H]1OC)n1c3ccccc3c3c4c(c5c6ccccc6n2c5c31)C(=O)N[C@@H]4O", "note": "[UCN-01]", "values": [{"measurement": "IC50", "setting": "[2]", "result": "[…]"}, {"measurement": "IC50", "setting": "[1]", "result": 0.031, "unit": "µM"}]}, {"smiles": "O=C1/C(=C2\\Nc3ccccc3C2=O)Nc2ccccc21", "note": "[indigo]", "values": [{"measurement": "IC50", "setting": "[9]; calculated from dose response curves, Table 4, read-out: IC50 CDK4/ cyclin D1", "result": "> 100", "unit": "µM"}, {"measurement": "IC50", "setting": "[5]; [20]", "result": "> 1000", "unit": "µM"}, {"measurement": "IC50", "setting": "[10]", "result": "> 1000", "unit": "µM"}, {"measurement": "IC50", "setting": "[11]", "result": 70, "unit": "µM"}, {"measurement": "IC50", "setting": "[12]; [22]", "result": "> 100", "unit": "µM"}]}, {"smiles": "CN1C(=O)/C(=C2/C(=O)Nc3ccccc32)c2ccccc21", "note": "[meisoindigo, N-Methyl-isoindigo]", "values": [{"measurement": "complete and partial remission rate", "setting": "[18]", "result": 81.3, "unit": "%"}, {"measurement": "total response rate", "setting": "[18]", "result": 90.1, "unit": "%"}]}]}
